{"source": "patent US8008337B2", "about": "“Azabicyclo[3.2.0] hept-3-yl compounds, a process for their preparation and pharmaceutical compositions containing them” (Les Laboratoires Servier, priority 2009, dated 2011)", "type_in_all_cases": "in vivo", "key": {"[1]": {"test_system": "extracellular levels of dopamine", "experiment": "Intracerebral microdialysis in the striatum of the awake rat", "details": "10 mg/kg i.p., striatum microdialysate, awake Wistar rat", "method": "Intracerebral microdialysis in the awake rat makes it possible to assess the influence of a compound on the release of neurotransmitters such as dopamine into the extracellular space of small cerebral structures, especially the striatum.\nThis technique is carried out in two steps: a surgery step (stereotaxic implantation of a cannula-guide carried out on the anaesthetised animal) and a microdialysis step carried out on the awake animal (collection of samples of extracellular cerebral liquid). Male rats of the Wistar strain (280-320 g) are anaesthetised and placed in a stereotaxic apparatus. A guide cannula is implanted in the striatum of the animals according to the following stereotaxic coordinates: antero-posteriority −1 mm, laterality +2.8 mm, depth −3 mm, relative to the bregma, according to the atlas of Paxinos and Watson (1996). One week after the surgery, a microdialysis probe (CMA11, length 4 mm, Phymep) is inserted into the guide cannula. The animals are placed in experimentation cages and the to probe inlet is connected to a pump continuously perfusing artificial cerebrospinal fluid (flow rate 1 μl/min). […] The extracellular levels of dopamine are assessed in each microdialysate using a liquid chromatographic technique coupled with electrochemical detection. The values are expressed as the mean±SEM relative to the baseline values (reference 100%)."}, "Wistar rat [2]": {"test_system": "Wistar rat", "experiment": "Social recognition in the Wistar rat", "details": "second encounter after 2 hours", "source_text": "Initially described in 1982 (J. Comp. Physiol., 1982, 96, 1000-1006), the social recognition test has subsequently been proposed by various authors (Psychopharmacology, 1987, 91, 363-368; Psychopharmacology, 1989, 97, 262-268) for studying the mnemocognitive effects of new compounds. The test is based on the natural expression of the olfactory memory of the rat and its natural tendency to forget and allows evaluation of memorisation, by recognition of a young congeneric animal, by an adult rat. A young rat (21 days), taken at random, is placed for 5 minutes in the cage housing an adult rat. With the aid of a video device, the experimenter observes the social recognition behaviour of the adult rat and measures its overall duration. The young rat is then removed from the adult rat's cage and is placed in its own cage until the second introduction. The adult rat is given the compound under test by the intraperitoneal route and, after 2 hours, is again brought into the presence (5 minutes) of the young rat. The social recognition behaviour is then observed again and its duration measured. The assessment criterion is the difference (T2−T1), expressed in seconds, between the “recognition” times of the 2 encounters."}, "NMRI mouse": {"test_system": "NMRI mouse", "experiment": "Tail suspension test in the NMRI mouse", "details": "10 mg/kg IP, 24 hours and 30 minutes before suspension, 6 minutes", "method": "The tail suspension test in the mouse (Porsolt et al., Arch. Int. Pharmacodyn., 1987, 288, 11) enables detection of psychopharmacological properties of compounds. NMRI mice are suspended by the tail, with the aid of a piece of adhesive tape, from a hook for 6 minutes: the immobility time is measured automatically with the aid of movement sensors. The animals are treated, by the intraperitoneal route, with the compounds of the invention or their carriers 24 hours and 30 minutes before they are suspended."}, "Wistar rat [3]": {"test_system": "Wistar rat", "experiment": "Interaction with barbital in the Wistar rat", "details": "10 mg/kg PO 30 minutes before barbital 170 mg/kg IP, sleep measured for 4 hours", "method": "The objective of this test is to determine the anti-sedative, awakening and/or anti-hypnotic properties of the compounds of the present invention. The rats are placed in individual cages and are given an injection of barbital (170 mg/kg IP). The duration of sleep is then measured for 4 hours after the injection of barbital, determined on the basis of loss of the righting reflex. The compounds of the invention or their carriers are administered by the oral route 30 minutes before the administration of barbital."}, "awake Wistar rat": {"test_system": "awake Wistar rat", "experiment": "Electroencephalogram recordings in the awake Wistar rat", "details": "3 mg/kg IP, cortical EEG", "method": "Electrodes are chronically implanted in adult male Wistar rats, being located at the surface of the frontal and parietal cortex. Cortical electroencephalogram (EEG) recordings are made in the rats placed in cages in a sound-proofed room. The compounds and carriers are administered in randomised manner by the intraperitoneal route at 10 o'clock on the same days with a minimum of 3 days between each administration, allowing each rat to be used as its own control. The absolute power of the slow delta activities (1-4 Hz), which predominate during slow sleep and disappear during wakefulness and paradoxical sleep, is averaged over successive periods of 30 minutes. Over 30 minutes, high and low values for the power of the slow delta activities are signs of […], respectively."}, "Sprague-Dawley rat": {"test_system": "Sprague-Dawley rat", "experiment": "Object recognition in the Sprague-Dawley rat", "details": "3 mg/kg PO 60 minutes before each session, second session 24 hours later", "source_text": "The object recognition test in the Sprague-Dawley rat (Behav. Brain Res., 1988, 31, 47-59) is based on the spontaneous exploratory activity of the animal and has the characteristics of episodic memory in humans. This memory test is sensitive to ageing (Eur. J. Pharmacol., 1997, 325, 173-180) and to cholinergic dysfunctions (Pharm. Biochem. Behav. 1996, 53(2), 277-283) and is based on the differences in the exploration of 2 objects of fairly similar shape—one familiar, the other new. Prior to the test, the animals are habituated to the environment (an enclosure without an object). In the course of a first session, the rats are placed (3 minutes) in the enclosure, in which there are 2 identical objects. The duration of exploration is measured for each object. In the course of the second session (3 minutes), 24 hours later, 1 of the 2 objects is replaced by a new object. The duration of exploration is measured for each object. The assessment criterion is the difference, Delta, expressed in seconds, between the exploration times for the new object and for the familiar object in the course of the second session."}}, "data": [{"smiles": "Cl.NC(=O)c1ccc(OCCCN2C[C@H]3CC[C@H]3C2)cc1", "note": "[Example 1, 4-{3-[(1R,5S)-3-Azabicyclo[3.2.0]hept-3-yl]-propoxy}benzamide hydrochloride]", "values": [{"measurement": "increase in endogenous cerebral concentrations of dopamine (in comparison with basal values)", "setting": "[1]", "result": "+123%"}, {"measurement": "difference (T2−T1) between recognition times", "setting": "Wistar rat [2]; 1 mg/kg IP", "result": 24, "unit": "s"}, {"measurement": "difference (T2−T1) between recognition times", "setting": "Wistar rat [2]; 3 mg/kg IP", "result": 36, "unit": "s"}, {"measurement": "increase in the immobility time", "setting": "NMRI mouse", "result": 119, "unit": "%"}, {"measurement": "reduction of the duration of sleeping caused by barbital", "setting": "Wistar rat [3]", "result": "−81", "unit": "%"}, {"measurement": "duration of reduction in power of the slow delta waves", "setting": "awake Wistar rat", "result": 120, "unit": "min"}, {"measurement": "effect on power of the slow delta waves (1-4 Hz)", "setting": "awake Wistar rat", "result": "significant reduction"}, {"measurement": "difference, Delta, between exploration times for the new and the familiar object", "setting": "Sprague-Dawley rat", "result": "~8", "unit": "s"}]}]}
